Experiments:
human NK1-receptor [1] = biological target: T1, human NK1-receptor (Homo sapiens, UniProt P25103); assay: Functional cellular test, Ca2+ measurements using FLIPR for NK1 activity; type: cell-based; design: expressed in transfected cells; host or cells: CHO fibroblast cells; conditions: for Kb: read-out: pA2 data for NK1 (converted); for pA2 data for NK1: CHO cells, human NK1, FLIPR Ca2+, agonist substance P 10^-8 M
Excerpt: The NK receptor is coupled to Gq.
All steps were done under sterile conditions.

human NK2-receptor [2] = biological target: T2, human NK2-receptor (Homo sapiens, UniProt P21452); assay: Functional cellular test, Ca2+ measurements using FLIPR for NK2 activity; conditions: for pA2 data for NK2: CHO cells, human NK2, FLIPR Ca2+, agonist NKA 10^-7 M;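 on all read-outs here: CHO cells stably expressing the human receptor, loaded with a calcium dye, antagonist inhibition of ligand-evoked intracellular calcium rise read as peak fluorescence change on FLIPR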
T2 sequence (P21452 1-398): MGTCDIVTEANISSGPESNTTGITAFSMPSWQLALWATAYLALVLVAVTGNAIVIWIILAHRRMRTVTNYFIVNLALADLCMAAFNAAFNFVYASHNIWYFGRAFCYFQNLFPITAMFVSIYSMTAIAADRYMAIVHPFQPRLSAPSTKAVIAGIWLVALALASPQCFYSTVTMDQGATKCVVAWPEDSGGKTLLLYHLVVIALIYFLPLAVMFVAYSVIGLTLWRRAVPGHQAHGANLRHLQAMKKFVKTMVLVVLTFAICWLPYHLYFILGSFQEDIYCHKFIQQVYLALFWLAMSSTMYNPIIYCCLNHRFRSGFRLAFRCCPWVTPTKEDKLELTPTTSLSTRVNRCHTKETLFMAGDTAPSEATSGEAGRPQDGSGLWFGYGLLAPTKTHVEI
Protocol: Functional Cellular Tests of the NK1-, NK2- and NK3-Antagonism
Functional cellular tests of the antagonistic effect of the compounds of the present invention on the human tachykinin receptors were performed in CHO cells expressing the recombinant human NK1, NK2 or NK3-receptor. In these tests the inhibition of ligand-induced increase in mobilization of intracellular calcium and inhibition of ligand-induced phosphorylation of mitogen activated protein kinase (MAPK) were determined, which can be used as a measure of functional activity of tachykinin-antagonists. Additionally, the antagonistic properties of reference compounds on the different tachykinin receptors were characterized for comparison.
The effects of test compounds were assessed using Chinese hamster ovary (CHO) fibroblast cells, stably expressing cloned human NK1, NK2 or NK3-receptors. The NK receptor is coupled to Gq. The activation of the Gq protein by ligand binding to the receptor leads to a mobilization of intracellular calcium and phosphorylation of MAPK. Both systems were used to determine functional effects of the test compounds.
Ca^2+ Measurements Using FLIPR for NK1 and NK2 Activity
For tests, cells were seeded 24 hours prior to the experiment into black 96-well microplates. The cell density was 2.2×10^4 cells/well. All steps were done under sterile conditions. In order to observe changes in intracellular calcium levels, cells were loaded with a calcium-sensitive dye. This dye (FLUO-4, from Molecular Probes) excites at 488 nm, and emits in the 500 nm to 560 nm range, only if a complex with calcium is formed. For the dye loading the growth-medium was aspirated out of the well without disturbing the confluent cell layer and 100 μl loading medium (HBSS, 4 μM FLUO-4, 0.005% (w/v) pluronic acid, 2.5 mM probenecid, 20 mM HEPES, pH 7.4) was dispensed into each well using an automatic pipettor system (Multidrop, Labsystems). Pluronic acid was added to increase dye solubility and dye uptake into the cells, whereas probenecid, an anion exchange inhibitor, was added to the loading medium to increase dye retention in the cells. The cells were incubated in a 5% CO2 incubator at 37° C. for 40 minutes. After dye loading, the cells were washed three times with wash-buffer (HBSS, 2.5 mM probenecid, 20 mM HEPES, pH 7.4) to reduce basal fluorescence. In the last washing step the buffer was aspirated and replaced with 100 μl washing buffer. […] The FLIPR setup parameters were set to 0.4 sec exposure length, filter 1, 50 μl fluid addition, pipettor height at 125 μl, dispense speed 40 μl/sec without mixing. Maximal fluorescence changes were obtained using the statistic function of the FLIPR software, and data plotted using GraphPad Prism 4. All points were expressed as a percentage inhibition of the control agonist. IC50 values were determined using sigmoidal dose-response curve fitting. Antagonist potencies (pA2) values were calculated using equation: pA2=−log(IC50/(1+[L]/EC50)),

human NK1-receptor [3] = biological target: T1, human NK1-receptor; assay: Binding potency of the test substances to NK1-receptors in vitro ([3H]-Substance P displacement); conditions: human NK1-receptor in CHO cell membranes, average of at least three measurements; for Ki: read-out: pKi, binding potency to NK1-receptors (converted)
Protocol: 1. Determination of the Binding Potency of the Test Substances to NK1-Receptors in Vitro
The affinity of test compounds for NK1-receptors can be determined by measuring the ability of the test compound to displace a radiolabeled ligand from its specific binding site. The tests were performed at Solvay Pharmaceuticals, Weesp, The Netherlands.
Separation of bound radioactivity from free radioactivity was done by filtration through glass fiber filters (Packard GF/B) with several washings with ice-cold buffer solution. Bound radioactivity was measured with a liquid scintillation counter (total binding).
The inhibition constant (Ki) was calculated according to the Cheng-Prusoff equation, and listed as its negative logarithmic value (pKi). The pKi value describes the potency of a test compound to bind to a receptor.

human NK3 receptor [4] = biological target: T3, human NK3 receptor (Homo sapiens, UniProt P29371); assay: Functional cellular test, Ca2+ measurements using aequorin for NK3 activity; type: cell-based; design: expressed in transfected cells; host or cells: cell line co-expressing mitochondrially targeted apoaequorin (CHO according to b76/b77); conditions: for Kb: read-out: pA2 data for NK3 (converted); for pA2 data for NK3: cell line with human NK3 receptor and apoaequorin, agonist senktide 5x10-8 M
T3 sequence (P29371 1-465): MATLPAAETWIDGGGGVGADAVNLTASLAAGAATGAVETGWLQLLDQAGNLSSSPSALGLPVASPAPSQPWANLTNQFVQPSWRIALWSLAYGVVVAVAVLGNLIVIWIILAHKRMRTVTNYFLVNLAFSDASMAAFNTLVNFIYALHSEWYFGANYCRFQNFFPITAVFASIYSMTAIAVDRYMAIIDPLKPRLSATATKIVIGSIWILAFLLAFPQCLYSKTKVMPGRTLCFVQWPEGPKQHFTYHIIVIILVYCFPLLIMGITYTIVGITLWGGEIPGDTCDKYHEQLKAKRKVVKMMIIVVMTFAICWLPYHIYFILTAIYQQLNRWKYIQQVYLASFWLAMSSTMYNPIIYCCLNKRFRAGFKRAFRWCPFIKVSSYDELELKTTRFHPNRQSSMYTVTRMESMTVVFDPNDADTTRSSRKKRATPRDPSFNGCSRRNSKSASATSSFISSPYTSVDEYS

human NK3 receptor [5] = biological target: T3, human NK3 receptor; assay: Binding potency of the test substances to NK3-receptors in vitro ([3H]-SR 142801 displacement); design: expressed in transfected cells; host or cells: CHO cells (membrane preparation); conditions: human NK3-receptor in CHO cell membranes, [3H]-SR 142801 (osanetant), average of at least three measurements
In short: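 [3H]-osanetant displacement on membranes from CHO cells stably expressing the human receptor, with bound ligand separated by filtration and counted by scintillation. Nonspecific binding defined with 1 μmol/l unlabeled osanetant. IC50 converted to Ki by Cheng-Prusoff and reported as pKi, averaged over measurements.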

human NK2-receptor [6] = biological target: T2, human NK2-receptor; assay: Binding potency of the test substances to NK2-receptors in vitro ([3H]-SR 48968 displacement); design: expressed in transfected cells; host or cells: CHO cells (membrane preparation); conditions: human NK2-receptor in CHO cell membranes, [3H]-SR 48968 (saredutant), average of at least three measurements; for Ki: read-out: pKi, binding potency to NK2-receptors (converted)
In short: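 Membranes from CHO cells stably expressing the receptor were incubated with [3H]-saredutant plus test compound, then filtered and counted by liquid scintillation. Nonspecific binding defined with 0.1 μmol/l unlabeled saredutant. IC50 from displacement converted to Ki via Cheng-Prusoff and reported as pKi, averaged over measurements.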

NK2-receptor = biological target: T4, NK2-receptor (Cavia porcellus, UniProt Q64077); assay: NK2-receptor-antagonistic effectiveness in vivo, NKA-induced late hypotension, bronchoconstriction and colonic pressure in anaesthetised guinea pigs; conditions: guinea pig; for ED50 iv after 1 min (cumulative), NK2 (bronchoconstriction) / ED50 iv after 1 min (cumulative), NK2 (colonic motility) / ED50 iv after 1 min (cumulative), NK2 (late hypotension): intravenous administration
T4 construct: from tissue; host or cells: whole animal (Pirbright-White guinea pigs), in vivo
T4 sequence (Q64077 1-402): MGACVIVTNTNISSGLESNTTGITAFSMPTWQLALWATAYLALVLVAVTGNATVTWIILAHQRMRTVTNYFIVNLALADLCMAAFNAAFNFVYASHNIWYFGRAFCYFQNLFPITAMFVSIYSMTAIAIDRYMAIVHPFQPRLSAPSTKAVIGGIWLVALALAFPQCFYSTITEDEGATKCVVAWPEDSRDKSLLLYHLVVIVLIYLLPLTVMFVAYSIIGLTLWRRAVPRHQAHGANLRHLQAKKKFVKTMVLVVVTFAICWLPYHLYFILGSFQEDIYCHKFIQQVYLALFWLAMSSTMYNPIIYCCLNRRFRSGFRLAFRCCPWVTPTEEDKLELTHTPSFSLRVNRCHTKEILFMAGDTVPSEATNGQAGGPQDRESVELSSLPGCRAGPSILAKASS
Excerpt: (§1) 10. Determination of the NK1- and NK2-Receptor-Antagonistic Effectiveness of the Test Substances In Vivo
(§2) The NK1- and NK2-antagonistic activities of the test substances were investigated in anaesthetised guinea pigs in each case after intravenous (=i.v.) and oral (=p.o.) administration in vivo. With the present test model it is possible to detect both NK2-antagonistic effects in three different organ systems (respiratory tracts, colon and circulation) and NK1-antagonistic effects (rapid drop in blood pressure) in an animal simultaneously.
(§3) Pirbright-White guinea pigs of a body weight of 500-700 g were anaesthetised with ketamine/xylazine (67/13 mg/kg subcutaneously, initial dose, further doses administered as required). The animals were provided with an intravenous catheter in order to administer the substance and an intra-arterial catheter to measure the blood pressure. The animals were artificially ventilated via a tracheal cannula and the respiratory pressure was recorded by means of a pressure transducer. A balloon was introduced into the distal colon of the animals for manometric recording of colon motility by means of a pressure transducer. Blood pressure, heart rate, respiratory pressure and colonic pressure were measured continuously for each animal and plotted on a recorder and by means of a digital data-processing system. […] The second phase of delayed hypotension (=phase of maximum hypotension after 2-5 min.) on the other hand is mediated via NK2-receptors, since they can be blocked by specific NK2-receptor antagonists.
(§4) These ED50 values obtained from cumulative dose effect curves are plotted in Table 13.

NK1-receptor = biological target: T5, NK1-receptor (Cavia porcellus, UniProt P30547); assay: NK1-receptor-antagonistic effectiveness in vivo, NKA-induced early hypotension in anaesthetised guinea pigs; conditions: guinea pig, NKA 200 pmol/animal i.v.; for ED50 iv after 1 min (cumulative), NK1 (early hypotension): intravenous administration
T5 construct: from tissue; host or cells: whole animal (Pirbright-White guinea pigs), in vivo
Excerpt: as §1, §2, §3, §4

[7] = NKA 200 pmol/animal i.v., oral administration

T5 sequence (P30547 whole entry): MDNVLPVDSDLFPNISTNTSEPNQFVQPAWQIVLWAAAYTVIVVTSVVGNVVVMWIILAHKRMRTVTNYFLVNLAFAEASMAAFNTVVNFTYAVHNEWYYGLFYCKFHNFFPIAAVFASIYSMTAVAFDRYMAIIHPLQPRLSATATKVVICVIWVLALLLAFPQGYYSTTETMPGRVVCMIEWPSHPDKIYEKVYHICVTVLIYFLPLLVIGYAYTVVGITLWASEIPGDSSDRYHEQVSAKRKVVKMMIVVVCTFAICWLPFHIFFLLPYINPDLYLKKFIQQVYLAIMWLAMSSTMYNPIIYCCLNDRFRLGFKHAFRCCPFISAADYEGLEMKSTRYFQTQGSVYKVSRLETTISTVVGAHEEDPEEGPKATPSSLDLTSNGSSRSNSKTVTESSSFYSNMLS
T1 sequence (P25103 whole entry): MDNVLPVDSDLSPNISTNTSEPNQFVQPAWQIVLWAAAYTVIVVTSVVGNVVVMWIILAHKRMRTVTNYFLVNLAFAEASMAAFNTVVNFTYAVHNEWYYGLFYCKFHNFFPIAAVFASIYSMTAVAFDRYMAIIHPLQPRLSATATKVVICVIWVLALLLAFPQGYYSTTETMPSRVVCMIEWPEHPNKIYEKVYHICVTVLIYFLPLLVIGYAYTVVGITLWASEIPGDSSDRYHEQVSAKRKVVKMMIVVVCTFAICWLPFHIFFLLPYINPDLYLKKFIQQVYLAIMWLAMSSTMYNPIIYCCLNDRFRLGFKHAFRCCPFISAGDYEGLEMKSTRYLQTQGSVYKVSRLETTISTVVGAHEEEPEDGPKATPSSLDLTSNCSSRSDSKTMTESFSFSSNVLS

Row | Compound | Kb (human NK1-receptor [1]) | Kb (human NK2-receptor [2]) | Ki (human NK1-receptor [3]) | Kb (human NK3 receptor [4]) | Ki (human NK2-receptor [6]) | pA2 data for NK2 (human NK2-receptor [2]) | pA2 data for NK3 (human NK3 receptor [4]) | ED50 iv after 1 min (cumulative), NK2 (bronchoconstriction) (NK2-receptor; NKA 200 pmol/animal i.v.) | ED50 iv after 1 min (cumulative), NK2 (colonic motility) (NK2-receptor; NKA 200 pmol/animal i.v.) | ED50 iv after 1 min (cumulative), NK2 (late hypotension) (NK2-receptor; NKA 200 pmol/animal i.v.) | ED50 iv after 1 min (cumulative), NK1 (early hypotension) (NK1-receptor) | also measured
1 | CN(C)C(=O)C1(N2CCCCC2)CCN(CCC(CN(C)C(=O)c2cc(Cl)ccc2F)c2ccc(Cl)c(Cl)c2)CC1 (stereo not drawn) [compound 10] | 79.4 nM | 3.98 nM | 79.4 nM | 5.01 nM | 1.26 nM |  |  |  |  |  |  | Ki (human NK3 receptor [5]; read-out: pKi, binding potency to NK3-receptors (converted)): 10 nM
2 | CN(C)C(=O)C1(N2CCCCC2)CCN(CC[C@H](CN(C)C(=O)c2ccc(F)c(F)c2F)c2ccc(Cl)c(Cl)c2)CC1 [compound 16] |  |  |  |  |  | 8.3 | 7.9 | 0.38 µmol/kg | 0.132 µmol/kg | 0.34 µmol/kg | >1.462 µmol/kg | pKi, binding potency to NK3-receptors (human NK3 receptor [5]): 7.8; pKi, binding potency to NK2-receptors (human NK2-receptor [6]): 9.0
3 | CN(C[C@@H](CCN1CCC(C(=O)N2CCCC2)(N2CCCC2)CC1)c1ccc(Cl)c(Cl)c1)C(=O)c1ccccc1 [compound 103, N-{(2S)-2-(3,4-dichlorophenyl)-4-[4-pyrrolidin-1-yl-4-(pyrrolidin-1-ylcarbonyl)piperidin-1-yl]butyl}-N-methylbenzamide] | 31.6 nM | 2 nM | 50.1 nM | 50.1 nM | 2 nM |  |  |  |  |  |  | 
4 | CN(C[C@@H](CCN1CCC(C(=O)N2CCCC2)(N2CCCC2)CC1)c1ccc(Cl)c(Cl)c1)C(=O)c1cc(C#N)cc2ccccc12 [compound 102, 3-cyano-N-{(2S)-2-(3,4-dichlorophenyl)-4-[4-pyrrolidin-1-yl-4-(pyrrolidin-1-ylcarbonyl)piperidin-1-yl]butyl}-N-methyl-1-naphthamide] | 2 nM | 39.8 nM | 2 nM | 39.8 nM | 5.01 nM |  |  |  |  |  |  | 
5 | CCC(=O)N(CC1CC1)C1CCN(CC[C@H](CN(C)C(=O)c2ccccc2)c2ccc(Cl)c(Cl)c2)CC1 [compound 105, N-[(2S)-4-{4-[(cyclopropylmethyl)(Propionyl)-amino]piperidin-1-yl}-2-(3,4-dichlorophenyl)butyl]-N-methylbenzamide] | 31.6 nM | 0.0794 nM | 25.1 nM | 100 nM | 2 nM |  |  |  |  |  |  | 
6 | CN(C)C(=O)C1(N2CCCCC2)CCN(CC[C@H](CN(C)C(=O)c2ccc(F)c(Cl)c2)c2ccc(Cl)c(Cl)c2)CC1 [compound 8] |  |  |  |  |  | 8.6 | 8.4 | 0.731 µmol/kg | 0.294 µmol/kg | 1.113 µmol/kg | >1.462 µmol/kg | pA2 data for NK1 (human NK1-receptor [1]): 7.1; pKi, binding potency to NK1-receptors (human NK1-receptor [3]): 7.4; ED50 AUC1-180 min oral, NK2 (bronchoconstriction) (NK2-receptor; [7]): >3.2 µmol/kg; ED50 AUC1-180 min oral, NK2 (colonic motility) (NK2-receptor; [7]): >3.2 µmol/kg; ED50 AUC1-180 min oral, NK2 (late hypotension) (NK2-receptor; [7]): >3.2 µmol/kg; oral activity on the NK2, in words (NK2-receptor; oral administration): active orally on the NK2; ED50 AUC1-180 min oral, NK1 (early hypotension) (NK1-receptor; oral administration): >3.2 µmol/kg
7 | CN(C)C(=O)C1(N2CCCCC2)CCN(CC[C@H](CN(C)C(=O)c2cc(F)cc(F)c2)c2ccc(Cl)c(Cl)c2)CC1 [compound 9] |  |  |  |  |  | 8.6 | 8.0 | 0.058 µmol/kg | 0.053 µmol/kg | 0.108 µmol/kg | >1.462 µmol/kg | pA2 data for NK1 (human NK1-receptor [1]): 8.0; pKi, binding potency to NK1-receptors (human NK1-receptor [3]): 7.6; pKi, binding potency to NK3-receptors (human NK3 receptor [5]): 8.4

— patent US20070219214A1, “Dual NK2/NK3-antagonists, pharmaceutical compositions comprising them, and processes for their preparation” (Solvay pharmaceuticals GmbH, priority 2006, published 2007)
